Laboratory results taken from US4409210A, “Antibiotic compound” (priority 1982, dated 1983).
Values after ≈ are worked out from the molar mass of the structure shown. *1 amine or outer side, *2 acyl side, *3 side chain or, on linkers, in order; H or OH if unused. Where a SMILES comes first, the peptide text is derived from it. Bridges are numbered along the chain shown (N, C = ends). [ ]: non-standard residue; d: D form. ξ: configuration not given here. X2 = CCCCCCCCCCCC(CC(=O)[*:1])O[*:2]; ξAsp(3ξ-OH) = NC(C(=O)O)C(O)C(=O)O; X1 = O=C(C1C(O)CCN1[*:1])[*:2]

Columns and labels:
[1] = tested on: Propionibacterium acnes A21953; assay: MIC, serial two-fold dilution method (anaerobic); format: cell-based; conditions: Propionibacterium acnes A21953, GAM agar medium, inoculum 10^7-10^8; for MIC: Cutibacterium acnes, read-out: minimum inhibitory concentration (MIC)
[2] = tested on: Staphylococcus aureus Smith; assay: MIC, serial two-fold dilution method (aerobic); format: cell-based; conditions: Staphylococcus aureus Smith, Mueller-Hinton agar, inoculum 10^4; for MIC: read-out: minimum inhibitory concentration (MIC)
[3] = tested on: Clostridium acidiurici A9560; assay: MIC, serial two-fold dilution method (anaerobic); format: cell-based; conditions: Clostridium acidiurici A9560, GAM agar medium, inoculum 10^7-10^8; for MIC: Gottschalkia acidurici, read-out: minimum inhibitory concentration (MIC)
[4] = tested on: Staphylococcus aureus 209P; assay: MIC, serial two-fold dilution method (aerobic); format: cell-based; conditions: Staphylococcus aureus 209P, Mueller-Hinton agar, inoculum 10^4; for MIC: read-out: minimum inhibitory concentration (MIC)
[5] = tested on: Pseudomonas aeruginosa D-113; assay: MIC, serial two-fold dilution method (aerobic); format: cell-based; conditions: Pseudomonas aeruginosa D-113, Mueller-Hinton agar, inoculum 10^4; for MIC: D113, read-out: minimum inhibitory concentration (MIC)
[6] = tested on: Peptostreptococcus anaerobius A21905; assay: MIC, serial two-fold dilution method (anaerobic); format: cell-based; conditions: Peptostreptococcus anaerobius A21905, GAM agar medium, inoculum 10^7-10^8; for MIC: read-out: minimum inhibitory concentration (MIC)
Escherichia coli NIHJ = assay: MIC, serial two-fold dilution method (aerobic); format: cell-based; conditions: Escherichia coli NIHJ, Mueller-Hinton agar, inoculum 10^4; for MIC: read-out: minimum inhibitory concentration (MIC)
[7] = tested on: Klebsiella pneumoniae D-11; assay: MIC, serial two-fold dilution method (aerobic); format: cell-based; conditions: Klebsiella pneumoniae D-11, Mueller-Hinton agar, inoculum 10^4; for MIC: D11, read-out: minimum inhibitory concentration (MIC)
[8] = tested on: Propionibacterium acnes A21933; assay: MIC, serial two-fold dilution method (anaerobic); format: cell-based; conditions: Propionibacterium acnes A21933, GAM agar medium, inoculum 10^7-10^8; for MIC: Cutibacterium acnes, read-out: minimum inhibitory concentration (MIC)
[9] = tested on: Bacteroides fragilis A20929; assay: MIC, serial two-fold dilution method (anaerobic); format: cell-based; conditions: Bacteroides fragilis A20929, GAM agar medium, inoculum 10^7-10^8; for MIC: read-out: minimum inhibitory concentration (MIC)
[10] = tested on: Bacteroides fragilis A22533; assay: MIC, serial two-fold dilution method (anaerobic); format: cell-based; conditions: Bacteroides fragilis A22533, GAM agar medium, inoculum 10^7-10^8; for MIC: read-out: minimum inhibitory concentration (MIC)
[11] = tested on: Fusobacterium necrophorum A20013; assay: MIC, serial two-fold dilution method (anaerobic); format: cell-based; conditions: Fusobacterium necrophorum A20013, GAM agar medium, inoculum 10^7-10^8; for MIC: read-out: minimum inhibitory concentration (MIC)
[12] = tested on: Clostridium cylindrosporum A9562; assay: MIC, serial two-fold dilution method (anaerobic); format: cell-based; conditions: Clostridium cylindrosporum A9562, GAM agar medium, inoculum 10^7-10^8; for MIC: read-out: minimum inhibitory concentration (MIC)
[13] = tested on: Bacteroides fragilis A20928-1; assay: MIC, serial two-fold dilution method (anaerobic); format: cell-based; conditions: Bacteroides fragilis A20928-1, GAM agar medium, inoculum 10^7-10^8; for MIC: A209281, read-out: minimum inhibitory concentration (MIC)
[14] = tested on: Bacteroides fragilis CUH-24; assay: MIC, serial two-fold dilution method (anaerobic); format: cell-based; conditions: Bacteroides fragilis CUH-24, GAM agar medium, inoculum 10^7-10^8; for MIC: CUH24, read-out: minimum inhibitory concentration (MIC)
[15] = tested on: Peptostreptococcus intermedius A21881; assay: MIC, serial two-fold dilution method (anaerobic); format: cell-based; conditions: Peptostreptococcus intermedius A21881, GAM agar medium, inoculum 10^7-10^8; for MIC: read-out: minimum inhibitory concentration (MIC)
[16] = tested on: Staphylococcus aureus A9601; assay: MIC, serial two-fold dilution method (aerobic); format: cell-based; conditions: Staphylococcus aureus A9601, Mueller-Hinton agar, inoculum 10^4; for MIC: read-out: minimum inhibitory concentration (MIC)
Micrococcus flavus D-12 = assay: MIC, serial two-fold dilution method (aerobic); format: cell-based; conditions: Micrococcus flavus D-12, Mueller-Hinton agar, inoculum 10^4; for MIC: D12, read-out: minimum inhibitory concentration (MIC)
[17] = tested on: Staphylococcus aureus A20610; assay: MIC, serial two-fold dilution method (aerobic); format: cell-based; conditions: Staphylococcus aureus A20610, Mueller-Hinton agar, inoculum 10^4; for MIC: read-out: minimum inhibitory concentration (MIC)
[18] = tested on: Staphylococcus aureus A20394; assay: MIC, serial two-fold dilution method (aerobic); format: cell-based; conditions: Staphylococcus aureus A20394, Mueller-Hinton agar, inoculum 10^4; for MIC: read-out: minimum inhibitory concentration (MIC)
[19] = tested on: Bacillus anthracis IID-115; assay: microbe, parasite or virus in culture; format: cell-based; conditions: for MIC: Bacillus anthracis, IID115, read-out: minimum inhibitory concentration (MIC)
[20] = tested on: Propionibacterium acnes A22650; assay: MIC, serial two-fold dilution method (anaerobic); format: cell-based; conditions: Propionibacterium acnes A22650, GAM agar medium, inoculum 10^7-10^8; for MIC: Cutibacterium acnes, read-out: minimum inhibitory concentration (MIC)
[21] = tested on: Bacteroides ovatus A22400; assay: MIC, serial two-fold dilution method (anaerobic); format: cell-based; conditions: Bacteroides ovatus A22400, GAM agar medium, inoculum 10^7-10^8; for MIC: read-out: minimum inhibitory concentration (MIC)
[22] = tested on: Staphylococcus aureus A20239; assay: MIC, serial two-fold dilution method (aerobic); format: cell-based; conditions: Staphylococcus aureus A20239, Mueller-Hinton agar, inoculum 10^4; for MIC: read-out: minimum inhibitory concentration (MIC)
[23] = tested on: Staphylococcus aureus A20701; assay: MIC, serial two-fold dilution method (aerobic); format: cell-based; conditions: Staphylococcus aureus A20701, Mueller-Hinton agar, inoculum 10^4; for MIC: read-out: minimum inhibitory concentration (MIC)
[24] = tested on: Neisseria gonorrhoeae A15112; assay: MIC, serial two-fold dilution method (aerobic); format: cell-based; conditions: Neisseria gonorrhoeae A15112; GC medium; inoculum 10^6 CFU/ml
E. coli NIHJ = assay: Antibiotic sensitivity, paper disc-agar diffusion method; format: cell-based; design: key: S (sensitive); R (resistant); I (intermediate); conditions: nutrient agar, 2 day's incubation at 28° C., Difco discs, amount/disc per antibiotic
Strain G393-B445 = assay: as above; format: cell-based, Empedobacter sp.; design: key: S (sensitive); R (resistant); I (intermediate); conditions: nutrient agar, 2 day's incubation at 28° C., Difco discs, amount/disc per antibiotic
S. aureus 209P = assay: as above; format: cell-based; design: key: S (sensitive); R (resistant); I (intermediate); conditions: nutrient agar, 2 day's incubation at 28° C., Difco discs, amount/disc per antibiotic

With `CCCCCCCCCCCC1CC(=O)N2CCCC2C(=O)NC(CO)C(=O)N2CCCC2C(=O)NC(CCCNC(=N)N)C(=O)NC(C(O)C(=O)O)C(=O)NC(CO)C(=O)N2CCC(O)C2C(=O)NC(C(O)C(=O)O)C(=O)O1` (stereo not shown) [Bu-2517] (PSPR[ξAsp(3ξ-OH)]S[X1][ξAsp(3ξ-OH)]; linker N-C via X2; configuration not given here) the “minimum inhibitory concentration (MIC)” value [1] was 6.3 µg/mL (≈ 5.59 µM), the “minimum inhibitory concentration (MIC)” value [2] was 1.6 µg/mL (≈ 1.42 µM) and the “minimum inhibitory concentration (MIC)” value [3] was 1.6 µg/mL (≈ 1.42 µM). For the same compound, the “minimum inhibitory concentration (MIC)” value [4] was 1.6 µg/mL (≈ 1.42 µM), the “minimum inhibitory concentration (MIC)” value [5] was > 100 µg/mL and the “minimum inhibitory concentration (MIC)” value [6] was 0.8 µg/mL (≈ 0.71 µM). For the same compound, the “minimum inhibitory concentration (MIC)” value (Escherichia coli NIHJ) was > 100 µg/mL, the “minimum inhibitory concentration (MIC)” value [7] was > 100 µg/mL and the “minimum inhibitory concentration (MIC)” value [8] was 1.6 µg/mL (≈ 1.42 µM). The “minimum inhibitory concentration (MIC)” value [9] was 3.1 µg/mL (≈ 2.75 µM), the “minimum inhibitory concentration (MIC)” value [10] was > 100 µg/mL and the “minimum inhibitory concentration (MIC)” value [11] was > 100 µg/mL. The “minimum inhibitory concentration (MIC)” value [12] was 1.6 µg/mL (≈ 1.42 µM), the “minimum inhibitory concentration (MIC)” value [13] was 25 µg/mL (≈ 22.2 µM) and the “minimum inhibitory concentration (MIC)” value [14] was > 100 µg/mL. The “minimum inhibitory concentration (MIC)” value [15] was 3.1 µg/mL (≈ 2.75 µM), the “minimum inhibitory concentration (MIC)” value [16] was 1.6 µg/mL (≈ 1.42 µM) and the “minimum inhibitory concentration (MIC)” value (Micrococcus flavus D-12) was < 0.05 µg/mL. For the same compound, the “minimum inhibitory concentration (MIC)” value [17] was 1.6 µg/mL (≈ 1.42 µM), the “minimum inhibitory concentration (MIC)” value [18] was 1.6 µg/mL (≈ 1.42 µM) and the “minimum inhibitory concentration (MIC)” value ([19]; Bacillus anthracis IID-115, Mueller-Hinton agar, inoculum 10^4) was 0.8 µg/mL (≈ 0.71 µM). For the same compound, the “minimum inhibitory concentration (MIC)” value [20] was 0.8 µg/mL (≈ 0.71 µM), the “minimum inhibitory concentration (MIC)” value [21] was > 100 µg/mL and the “minimum inhibitory concentration (MIC)” value [22] was 1.6 µg/mL (≈ 1.42 µM). For the same compound, the “minimum inhibitory concentration (MIC)” value [23] was 1.6 µg/mL (≈ 1.42 µM) and the “minimum inhibitory concentration (MIC)” value [24] was > 100 µg/mL.
Work on `O=C(N[C@H](CO)[C@H](O)c1ccc([N+](=O)[O-])cc1)C(Cl)Cl` [Chloramphenicol] yielded an MIC [1] of 1.6 µg/mL (≈ 4.95 µM), an MIC [2] of 3.1 µg/mL (≈ 9.59 µM) and an MIC [3] of 6.3 µg/mL (≈ 19.5 µM). For the same compound, the “Sensitivity E. coli NIHJ” value (E. coli NIHJ) was “S”, the MIC [4] was 3.1 µg/mL (≈ 9.59 µM) and the MIC [5] was > 100 µg/mL. The MIC [6] was 1.6 µg/mL (≈ 4.95 µM), the MIC (Escherichia coli NIHJ) was 0.8 µg/mL (≈ 2.48 µM) and the “Sensitivity Strain G393-B445” value (Strain G393-B445) was “S”. It also gave an MIC [7] of 1.6 µg/mL (≈ 4.95 µM), an MIC [8] of 3.1 µg/mL (≈ 9.59 µM) and an MIC [9] of 3.1 µg/mL (≈ 9.59 µM). The MIC [10] was 3.1 µg/mL (≈ 9.59 µM), the MIC [11] was 6.3 µg/mL (≈ 19.5 µM) and the MIC [12] was 6.3 µg/mL (≈ 19.5 µM). It also gave an MIC [13] of 3.1 µg/mL (≈ 9.59 µM), an MIC [14] of 1.6 µg/mL (≈ 4.95 µM) and an MIC [15] of 3.1 µg/mL (≈ 9.59 µM). It also gave an MIC [16] of 6.3 µg/mL (≈ 19.5 µM), an MIC (Micrococcus flavus D-12) of 1.6 µg/mL (≈ 4.95 µM) and an MIC [17] of 50 µg/mL (≈ 155 µM). It also gave an MIC [18] of 50 µg/mL (≈ 155 µM), an MIC [19] of 3.1 µg/mL (≈ 9.59 µM) and an MIC [20] of 0.4 µg/mL (≈ 1.24 µM). The MIC [21] was 1.6 µg/mL (≈ 4.95 µM), the “Sensitivity S. aureus 209P” value (S. aureus 209P) was “S” and the MIC [22] was 6.3 µg/mL (≈ 19.5 µM). For the same compound, the MIC [23] was 50 µg/mL (≈ 155 µM).
`CC[C@H]1OC(=O)[C@H](C)[C@@H](O[C@H]2C[C@@](C)(OC)[C@@H](O)[C@H](C)O2)[C@H](C)[C@@H](O[C@@H]2O[C@H](C)C[C@H](N(C)C)[C@H]2O)[C@](C)(O)C[C@@H](C)C(=O)[C@H](C)[C@@H](O)[C@]1(C)O` [Erythromycin] showed an MIC [1] of 0.8 µg/mL (≈ 1.09 µM), an MIC [2] of 0.2 µg/mL (≈ 0.273 µM) and an MIC [3] of 1.6 µg/mL (≈ 2.18 µM). For the same compound, the “Sensitivity E. coli NIHJ” value (E. coli NIHJ) was “R”, the MIC [4] was 0.1 µg/mL (≈ 0.136 µM) and the MIC [5] was 100 µg/mL (≈ 136 µM). For the same compound, the MIC [6] was 0.8 µg/mL (≈ 1.09 µM), the MIC (Escherichia coli NIHJ) was 100 µg/mL (≈ 136 µM) and the “Sensitivity Strain G393-B445” value (Strain G393-B445) was “S”. It also gave an MIC [7] of 100 µg/mL (≈ 136 µM), an MIC [8] of 1.6 µg/mL (≈ 2.18 µM) and an MIC [9] of 1.6 µg/mL (≈ 2.18 µM). For the same compound, the MIC [10] was 0.4 µg/mL (≈ 0.545 µM), the MIC [11] was > 100 µg/mL and the MIC [12] was 3.1 µg/mL (≈ 4.22 µM). For the same compound, the MIC [13] was 0.013 µg/mL (≈ 0.0177 µM), the MIC [14] was > 100 µg/mL and the MIC [15] was 0.4 µg/mL (≈ 0.545 µM). The MIC [16] was 0.4 µg/mL (≈ 0.545 µM), the MIC (Micrococcus flavus D-12) was < 0.05 µg/mL and the MIC [17] was > 100 µg/mL. For the same compound, the MIC [18] was 0.2 µg/mL (≈ 0.273 µM), the MIC [19] was 0.4 µg/mL (≈ 0.545 µM) and the MIC [20] was < 0.0063 µg/mL. The MIC [21] was > 100 µg/mL, the “Sensitivity S. aureus 209P” value (S. aureus 209P) was “S” and the MIC [22] was 12.5 µg/mL (≈ 17 µM). For the same compound, the MIC [23] was > 100 µg/mL.
